This note sets out measurements from US6500846B1, “CDK inhibitors having flavone structure” (LG Chemical, Ltd., priority 1998, dated 2002).

One series deals with T1, CDK4/cyclin D1 (Homo sapiens, UniProt P11802).
T1 construct: made in house; host or cells: insect cells infected with baculoviruses
As to the kind of experiment: Inhibitory activity against CDK4/cyclin D1 enzyme (GST-RB phosphorylation, P32-γ-ATP, scintillation counting). The series is classed as biochemical. Conditions: CDK4/cyclin D1, 100 μM ATP, GST-RB substrate, 30° C. 30 minutes. How it is done: (§1) Analysis of inhibitory activity against CDK2/cyclin A and CDK4/cyclin D1 enzyme.
(§2) The inhibitory activity against CDK2 is measured by referring to Kitagawa, M. et al., Oncogene 9:2549, 1994 and the inhibitory activity against CDK4 is measured by referring to Carlson, B. A. et al., Cancer Research 56:2473,1996.
(§3) As for CDK2, either the extract from the insect cell infected both with baculovirus which expresses CDK2 gene and baculovirus which expresses cyclin A gene or the active enzyme which had been purified therefrom was used. CDK4 enzyme was also obtained from the insect cell infected both with baculovirus expressing CDK4 gene and baculovirus expressing cyclin D1 gene. As the substrate for CDK2, either histon H1 or Rb protein was used. Rb protein was also used as the substrate for CDK4.
(§4) Specifically the activities of enzymes CDK2/cyclin A and CDK4/cyclin D1 were determined according to the following procedure.
(§5) 100 ng of enzyme was reacted in a total 1000 μl of 20 mM Tris (pH 8.0), 100 mM NaCl, 10 mM MgCl2 buffer solution containing 20 μg of GST-RB protein, 100 μM of ATP and 5 μCi of P32-γ-ATP at 30° C. for 30 minutes. Then, the enzyme reaction was stopped by adding EDTA to a concentration of 20 mM. Subsequently, 30 μl of 50% glutathione bead (purchased from Pharmacia) was added to attach GST-RB to the bead, which was washed three times with 20mM Tris (pH 8.0), 100 mM NaCl, 10 mM EDTA solution, and then scintillation counting was carried out. To analyze the inhibitory activity of the compound, the inhibitor having a proper concentration was added to the enzyme reaction solution, and then the enzyme activity was measured according to the above method.
(§6) The inhibitory activity of the compound of formula (1) according to the present invention against CDK2 and CDK4 is represented as IC50 value. The compounds which are not included in Examples(compound 63, 64, 65 and 66) were synthesized and purified according to the same procedure as examples, and then IC50 thereof was measured.

The nature of a further series: in vivo. The note with it: male, ICR, mouse, po. How it is done: The acute oral toxcities of the compounds 14, 17, 28, 39, 51 and 57 each of which is obtained in Examples 14, 17, 73,84, 96 and 102, respectively are investigated in the following.
Solutions containing a compound in several different concentrations from each other were prepared, and they were administered orally to ICR male mouse with a dose of 10 ml/kg.
After administration, lethality and symptoms for 7 days were observed, and LD50 (mg/kg) was calculated according to Litchfield-Wilcoxon' method.

The target in the next series is T2, CDK2/cyclin A (Homo sapiens, UniProt P24941).
T2 construct: made in house; host or cells: insect cells infected with baculoviruses
As to the kind of experiment: Inhibitory activity against CDK2/cyclin A enzyme (GST-RB phosphorylation, P32-γ-ATP, scintillation counting). The series is classed as biochemical. The note with it: 100 μM ATP, GST-RB substrate, 30° C. 30 minutes. The procedure:
as §1, §2, §3, §4, §5, §6

T1 sequence (P11802 whole entry, species assumed): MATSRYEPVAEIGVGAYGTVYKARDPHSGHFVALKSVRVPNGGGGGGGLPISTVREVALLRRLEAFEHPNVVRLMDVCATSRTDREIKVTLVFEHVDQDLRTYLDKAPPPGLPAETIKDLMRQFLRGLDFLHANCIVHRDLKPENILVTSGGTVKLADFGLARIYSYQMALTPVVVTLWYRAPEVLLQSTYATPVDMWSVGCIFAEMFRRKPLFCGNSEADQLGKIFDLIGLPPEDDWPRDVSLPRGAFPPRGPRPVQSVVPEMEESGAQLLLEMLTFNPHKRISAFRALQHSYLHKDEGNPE
T1 sequence (P24385 whole entry partner, species assumed): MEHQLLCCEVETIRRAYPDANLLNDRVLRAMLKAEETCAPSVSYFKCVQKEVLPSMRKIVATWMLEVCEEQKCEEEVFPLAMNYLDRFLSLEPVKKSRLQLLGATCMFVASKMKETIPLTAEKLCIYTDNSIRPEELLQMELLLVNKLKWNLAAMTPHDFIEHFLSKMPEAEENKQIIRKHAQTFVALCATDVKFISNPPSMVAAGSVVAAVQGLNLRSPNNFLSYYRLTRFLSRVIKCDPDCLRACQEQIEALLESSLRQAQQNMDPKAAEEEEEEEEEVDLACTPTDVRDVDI

For `O=c1c(O)c(-c2ccc(O)c(O)c2)oc2ccc(O)cc12` [Compound 14, 2-(3,4-dihydroxyphenyl)-3,6-dihydroxy-4H-chromen-4-one], the IC50 at CDK4/cyclin D1 and against CDK2/cyclin A was less than 5 µM in each case. The LD50 at 7 days in the series “in vivo” is greater than 3000 mg/kg.
As for `O=c1c(O)c(-c2ccc(O)c(O)c2)oc2ccc(NS(=O)(=O)c3ccc(C(F)(F)F)cc3)cc12` [Compound 39, N-[2-(3,4-dihydroxyphenyl)-3-hydroxy-4-oxo-4H-chromen-6-yl]-4-(trifluoromethyl)benzenesulfonamide], the IC50 at CDK4/cyclin D1 worked out at 6.4 µM; against CDK2/cyclin A, 55 µM. Further, the LD50 at 7 days in “in vivo” was greater than 3000 mg/kg.
As to `O=c1c(O)c(-c2ccc(O)c(O)c2)oc2ccc(F)cc12` [Compound 17, 6-fluoro-2-(3,4-dihydroxyphenyl)-3-hydroxy-4H-chromen-4-one], the IC50 on CDK4/cyclin D1 and at CDK2/cyclin A was less than 10 µM each time. For the same molecule, in the series “in vivo”, the LD50 at 7 days is greater than 3000 mg/kg.
As to `Cc1ccc(S(=O)(=O)Nc2ccc3oc(-c4ccc(O)c(O)c4)c(O)c(=O)c3c2)cc1` [Compound 28, N-[2-(3,4-dihydroxyphenyl)-3-hydroxy-4-oxo-4H-chromen-6-yl]-4-methylbenzenesulfonamide], the IC50 came to 7.8 µM against CDK4/cyclin D1 and 56 µM on CDK2/cyclin A. This molecule registered an LD50 at 7 days in the series “in vivo” greater than 3000 mg/kg.
With `O=C(NC(=O)c1ccccc1)Nc1ccc2oc(-c3ccc(O)c(O)c3)c(O)c(=O)c2c1` [Compound 57, N-benzoyl-N′-[2-(3,4-dihydroxyphenyl)-3-hydroxy-4-oxo-4H-chromen-6-yl]urea], the IC50 at CDK4/cyclin D1 was found to be 18 µM; against CDK2/cyclin A it was 22.4 µM. The molecule also yielded an LD50 at 7 days in “in vivo” greater than 3000 mg/kg.
As to `CC(=O)Nc1ccc2oc(-c3ccc(O)c(O)c3)c(O)c(=O)c2c1` [Compound 51, N-[2-(3,4-dihydroxyphenyl)-3-hydroxy-4-oxo-4H-chromen-6-yl]acetamide], the IC50 at CDK4/cyclin D1 and against CDK2/cyclin A was 5.6 µM each time. For the same molecule, in the series “in vivo”, the LD50 at 7 days is greater than 3000 mg/kg.
With `O=c1c(O)c(-c2ccc(O)c(O)c2)oc2ccc(NS(=O)(=O)c3ccc(F)cc3)cc12` [Compound 43, N-[2-(3,4-dihydroxyphenyl)-3-hydroxy-4-oxo-4H-chromen-6-yl]-4-fluorobenzenesulfonamide], the IC50 at CDK4/cyclin D1 amounted to 2.1 µM; at CDK2/cyclin A it was 8.6 µM.
For `O=c1c(O)c(-c2ccc(O)c(O)c2)oc2ccc(NS(=O)(=O)c3ccc(Br)cc3)cc12` [Compound 29, 4-bromo-N-[2-(3,4-dihydroxyphenyl)-3-hydroxy-4-oxo-4H-chromen-6-yl]benzenesulfonamide], the values for the IC50 on CDK4/cyclin D1 and against CDK2/cyclin A were 1.8 µM and 17.8 µM, respectively.
Turning to `O=c1c(O)c(-c2ccc(O)c(O)c2)oc2ccc(NS(=O)(=O)c3ccc(-c4ccon4)s3)cc12` [Compound 36, N-[2-(3,4-dihydroxyphenyl)-3-hydroxy-4-oxo-4H-chromen-6-yl]-5-(isooxazolyl)-2-thiophenesulfonamide], the results for the IC50 at CDK4/cyclin D1 and on CDK2/cyclin A were 3.5 µM and 12 µM, respectively.
With `O=C(Nc1ccc([N+](=O)[O-])cc1)Nc1ccc2oc(-c3ccc(O)c(O)c3)c(O)c(=O)c2c1` [Compound 61, N-[2-(3,4-dihydroxyphenyl)-3-hydroxy-4-oxo-4H-chromen-6-yl]-N′-(4-nitrophenyl)urea], the results for the IC50 on CDK4/cyclin D1 and on CDK2/cyclin A were 1.7 µM and 5.6 µM, respectively.

The term IC50 denotes the concentration needed to halve the response being measured. Low values mean greater potency, high ones weaker potency. The LD50 is the dose expected to kill half of the subjects tested. Low readings indicate greater toxicity, high ones lower toxicity.
